According to US20130116263A1, “PAK INHIBITORS FOR THE TREATMENT OF CELL PROLIFERATIVE DISORDERS” (AFRAXIS, INC., priority 2011, published 2013):

What follows are compounds tested against PAK4 (Homo sapiens, UniProt O96013) (assay: In vitro PAK inhibition assay (Z'-LYTE, SelectScreen), PAK4). Settings: not given.
Type: biochemical
Method: (§1) Compounds are screened in 1% DMSO (final) in the well. For 10 point titrations, 3-fold serial dilutions are conducted. All Peptide/Kinase Mixtures are diluted to a 2× working concentration in the appropriate Kinase Buffer
The 2×PAK-4/Ser/Thr 20 mixture is prepared in 50 mM HEPES pH 7.5, 0.01% BRIJ-35, 10 mM MgCl2, 1 mM EGTA. The final 10 μL Kinase Reaction consists of 0.1-0.75 ng PAK-4 and 2 μM Ser/Thr 20 in 50 mM HEPES pH 7.5, 0.01% BRIJ-35, 10 mM MgCl2, 1 mM EGTA. After the 1 hour Kinase Reaction incubation, 5 μL of a 1:256 dilution of Development Reagent A is added.
(§2) 1. Add the following solutions to a well in a 384-well plate: • 2.5 μL of 4× Test Compound OR (100 nL 100× Test Compound plus 2.4 μL kinase buffer) • 5 μL of 2× Peptide/Kinase (PAK) Mixture • 2.5 μL of 4×ATP Solution
(§3) 3. Incubate the PAK Kinase Reaction at room temperature for 60-minutes
(§4) 4. Add 5 μL of Development Reagent Solution to each well
(§5) 6. Incubate the Development Reaction for 60-minutes
(§6) 7. Determine the fluorescence using a fluorescence plate reader
SelectScreen® Kinase Profiling Service uses XLfit from IDBS. The dose response curve is curve fit to model number 205 (sigmoidal dose-response model).
The table below provides specifications and data around each kinase. The representative IC50 value with a known inhibitor for each kinase was determined at the ATP bin nearest to the ATP Km app.

PAK4, sequence (O96013 whole entry): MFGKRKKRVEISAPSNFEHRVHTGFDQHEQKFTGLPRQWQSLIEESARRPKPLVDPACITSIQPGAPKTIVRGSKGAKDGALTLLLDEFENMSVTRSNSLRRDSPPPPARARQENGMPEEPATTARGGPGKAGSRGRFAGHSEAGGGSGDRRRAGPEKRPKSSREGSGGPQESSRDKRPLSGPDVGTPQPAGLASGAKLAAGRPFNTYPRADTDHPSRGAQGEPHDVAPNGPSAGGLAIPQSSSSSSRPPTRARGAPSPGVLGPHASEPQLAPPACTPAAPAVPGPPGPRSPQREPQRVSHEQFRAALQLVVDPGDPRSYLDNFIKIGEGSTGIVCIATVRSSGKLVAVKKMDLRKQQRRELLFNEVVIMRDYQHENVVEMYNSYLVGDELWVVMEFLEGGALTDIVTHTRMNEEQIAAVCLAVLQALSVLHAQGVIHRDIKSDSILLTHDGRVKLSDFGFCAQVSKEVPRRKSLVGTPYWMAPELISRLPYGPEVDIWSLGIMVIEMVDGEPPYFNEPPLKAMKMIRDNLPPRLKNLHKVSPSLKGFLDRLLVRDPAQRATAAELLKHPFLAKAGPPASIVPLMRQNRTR

| SMILES | IC50 [nM] |
| --- | --- |
| CCn1c(=O)c(-c2ccc(-c3cncc(C)n3)cc2Cl)cc2cnc(NC3CCC(CCN)CC3)nc21 (stereo not drawn) [Example 134] | > 5000 |
| CCn1c(=O)c(-c2ccc(-c3cccnc3C)cc2Cl)cc2cnc(N[C@@H]3CCOC3)nc21 [Example 59] | > 5000 |
| Cc1nccnc1-c1ccc(-c2cc3cnc(N[C@@H]4CCOC4)nc3n(Cc3ccncc3)c2=O)c(Cl)c1 [Example 124] | > 5000 |
| CCn1c(=O)c(-c2ccc(-c3nccnc3C)cc2Cl)cc2cnc(NC3CCN(C)C(=O)C3)nc21 (stereo not drawn) [Example 35] | > 5000 |
| COCCCn1c(=O)c(-c2ccc(-c3cncc(C)n3)cc2Cl)cc2cnc(N[C@@H]3CCOC3)nc21 [Example 64] | > 5000 |
| CCn1c(=O)c(-c2ccc(-c3noc(C)n3)cc2Cl)cc2cnc(N[C@@H]3CCOC3)nc21 [Example 54] | > 5000 |
| CCn1c(=O)c(-c2ccc(-c3cncc(C)n3)cc2Cl)cc2cnc(NCC3CCC(N(C)C)CC3)nc21 (stereo not drawn) [Example 132] | > 5000 |
| Cc1nccnc1-c1ccc(-c2cc3cnc(N[C@H]4CCOC4)nc3n(Cc3ccncc3)c2=O)c(Cl)c1 [Example 126] | > 5000 |
| CCn1c(=O)c(-c2ccc(-c3nccnc3C)cc2Cl)cc2cnc(NC3CCNC(=O)C3)nc21 (stereo not drawn) [Example 33] | > 5000 |

The compounds below were run against PAK3 (Homo sapiens, UniProt O75914) (assay: In vitro PAK inhibition assay (Z'-LYTE, SelectScreen), PAK3). Settings: read-out: PAK3 IC50.
PAK3, sequence (O75914 1-544 isoform O75914-2): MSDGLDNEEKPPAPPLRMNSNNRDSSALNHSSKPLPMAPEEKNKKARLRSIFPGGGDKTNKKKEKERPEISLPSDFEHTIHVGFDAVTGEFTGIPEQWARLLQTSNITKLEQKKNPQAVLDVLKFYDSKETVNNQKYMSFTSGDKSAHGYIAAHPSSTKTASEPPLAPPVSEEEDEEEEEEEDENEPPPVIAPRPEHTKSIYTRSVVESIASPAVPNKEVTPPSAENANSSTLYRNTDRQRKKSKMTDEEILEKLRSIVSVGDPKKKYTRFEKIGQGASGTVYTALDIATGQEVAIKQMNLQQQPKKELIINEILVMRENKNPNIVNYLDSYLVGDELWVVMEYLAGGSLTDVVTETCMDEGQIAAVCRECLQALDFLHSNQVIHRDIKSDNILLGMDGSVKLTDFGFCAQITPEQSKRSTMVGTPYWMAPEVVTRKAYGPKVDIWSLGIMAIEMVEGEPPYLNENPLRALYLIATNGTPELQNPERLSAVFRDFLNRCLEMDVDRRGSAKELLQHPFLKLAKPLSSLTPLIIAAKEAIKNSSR
Type: biochemical
Method: as §1
The 2×PAK3/Ser/Thr 20 mixture is prepared in 50 mM HEPES pH 7.5, 0.01% BRIJ-35, 10 mM MgCl2, 1 mM EGTA.
as §2, §3, §4, §5, §6
(§7) SelectScreen® Kinase Profiling Service uses XLfit from IDBS.
(§8) The representative IC50 value with a known inhibitor for each kinase was determined at the ATP bin nearest to the ATP Km app.

| SMILES | IC50 [nM] |
| --- | --- |
| CCn1c(=O)c(-c2ccc(-c3cncc(C)n3)cc2Cl)cc2cnc(NC3CCC(CCN)CC3)nc21 (stereo not drawn) [Example 134] | 50 to 500 |
| CCn1c(=O)c(-c2ccc(-c3cccnc3C)cc2Cl)cc2cnc(N[C@@H]3CCOC3)nc21 [Example 59] | 500 to 5000 |
| Cc1nccnc1-c1ccc(-c2cc3cnc(N[C@@H]4CCOC4)nc3n(Cc3ccncc3)c2=O)c(Cl)c1 [Example 124] | 500 to 5000 |
| CCn1c(=O)c(-c2ccc(-c3nccnc3C)cc2Cl)cc2cnc(NC3CCN(C)C(=O)C3)nc21 (stereo not drawn) [Example 35] | 50 to 500 |
| COCCCn1c(=O)c(-c2ccc(-c3cncc(C)n3)cc2Cl)cc2cnc(N[C@@H]3CCOC3)nc21 [Example 64] | 50 to 500 |
| CCn1c(=O)c(-c2ccc(-c3noc(C)n3)cc2Cl)cc2cnc(N[C@@H]3CCOC3)nc21 [Example 54] | 50 to 500 |
| CCn1c(=O)c(-c2ccc(-c3cncc(C)n3)cc2Cl)cc2cnc(NCC3CCC(N(C)C)CC3)nc21 (stereo not drawn) [Example 132] | 50 to 500 |
| Cc1nccnc1-c1ccc(-c2cc3cnc(N[C@H]4CCOC4)nc3n(Cc3ccncc3)c2=O)c(Cl)c1 [Example 126] | 50 to 500 |
| CCn1c(=O)c(-c2ccc(-c3nccnc3C)cc2Cl)cc2cnc(NC3CCNC(=O)C3)nc21 (stereo not drawn) [Example 33] | 50 to 500 |

These compounds were tested against PAK1 (Homo sapiens, UniProt Q13153) (assay: In vitro PAK inhibition assay (Z'-LYTE, SelectScreen), PAK1). Settings: read-out: PAK1 IC50.
PAK1, sequence (Q13153 whole entry): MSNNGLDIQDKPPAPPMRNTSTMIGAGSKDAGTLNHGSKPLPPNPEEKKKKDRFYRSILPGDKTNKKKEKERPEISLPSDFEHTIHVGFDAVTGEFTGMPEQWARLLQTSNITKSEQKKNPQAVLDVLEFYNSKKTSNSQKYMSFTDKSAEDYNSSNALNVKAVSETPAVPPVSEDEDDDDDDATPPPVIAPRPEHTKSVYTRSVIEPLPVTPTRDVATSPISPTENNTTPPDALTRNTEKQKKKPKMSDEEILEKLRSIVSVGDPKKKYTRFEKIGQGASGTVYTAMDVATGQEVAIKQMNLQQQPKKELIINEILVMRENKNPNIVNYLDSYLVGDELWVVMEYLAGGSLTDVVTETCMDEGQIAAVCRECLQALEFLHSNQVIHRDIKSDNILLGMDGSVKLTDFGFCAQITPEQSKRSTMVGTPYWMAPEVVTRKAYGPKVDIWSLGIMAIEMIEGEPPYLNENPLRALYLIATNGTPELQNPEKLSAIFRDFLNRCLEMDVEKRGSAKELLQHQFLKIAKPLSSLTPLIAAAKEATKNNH
Type: biochemical
Method: as §1
The 2×PAK1/Ser/Thr 19 mixture is prepared in 50 mM HEPES pH 7.5, 0.01% BRIJ-35, 10 mM MgCl2, 1 mM EGTA.
as §2, §3, §4, §5, §6, §7, §8

| SMILES | IC50 [nM] |
| --- | --- |
| CCn1c(=O)c(-c2ccc(-c3cncc(C)n3)cc2Cl)cc2cnc(NC3CCC(CCN)CC3)nc21 (stereo not drawn) [Example 134] | < 50 |
| CCn1c(=O)c(-c2ccc(-c3cccnc3C)cc2Cl)cc2cnc(N[C@@H]3CCOC3)nc21 [Example 59] | 500 to 5000 |
| Cc1nccnc1-c1ccc(-c2cc3cnc(N[C@@H]4CCOC4)nc3n(Cc3ccncc3)c2=O)c(Cl)c1 [Example 124] | 50 to 500 |
| CCn1c(=O)c(-c2ccc(-c3nccnc3C)cc2Cl)cc2cnc(NC3CCN(C)C(=O)C3)nc21 (stereo not drawn) [Example 35] | 50 to 500 |
| COCCCn1c(=O)c(-c2ccc(-c3cncc(C)n3)cc2Cl)cc2cnc(N[C@@H]3CCOC3)nc21 [Example 64] | < 50 |
| CCn1c(=O)c(-c2ccc(-c3noc(C)n3)cc2Cl)cc2cnc(N[C@@H]3CCOC3)nc21 [Example 54] | 50 to 500 |
| CCn1c(=O)c(-c2ccc(-c3cncc(C)n3)cc2Cl)cc2cnc(NCC3CCC(N(C)C)CC3)nc21 (stereo not drawn) [Example 132] | 50 to 500 |
| Cc1nccnc1-c1ccc(-c2cc3cnc(N[C@H]4CCOC4)nc3n(Cc3ccncc3)c2=O)c(Cl)c1 [Example 126] | 50 to 500 |
| CCn1c(=O)c(-c2ccc(-c3nccnc3C)cc2Cl)cc2cnc(NC3CCNC(=O)C3)nc21 (stereo not drawn) [Example 33] | 50 to 500 |

These compounds were tested against PAK2 (PAK65) (Homo sapiens, UniProt Q13177) (assay: In vitro PAK inhibition assay (Z'-LYTE, SelectScreen), PAK2). Settings: read-out: PAK2 IC50.
PAK2 (PAK65), sequence (Q13177 whole entry): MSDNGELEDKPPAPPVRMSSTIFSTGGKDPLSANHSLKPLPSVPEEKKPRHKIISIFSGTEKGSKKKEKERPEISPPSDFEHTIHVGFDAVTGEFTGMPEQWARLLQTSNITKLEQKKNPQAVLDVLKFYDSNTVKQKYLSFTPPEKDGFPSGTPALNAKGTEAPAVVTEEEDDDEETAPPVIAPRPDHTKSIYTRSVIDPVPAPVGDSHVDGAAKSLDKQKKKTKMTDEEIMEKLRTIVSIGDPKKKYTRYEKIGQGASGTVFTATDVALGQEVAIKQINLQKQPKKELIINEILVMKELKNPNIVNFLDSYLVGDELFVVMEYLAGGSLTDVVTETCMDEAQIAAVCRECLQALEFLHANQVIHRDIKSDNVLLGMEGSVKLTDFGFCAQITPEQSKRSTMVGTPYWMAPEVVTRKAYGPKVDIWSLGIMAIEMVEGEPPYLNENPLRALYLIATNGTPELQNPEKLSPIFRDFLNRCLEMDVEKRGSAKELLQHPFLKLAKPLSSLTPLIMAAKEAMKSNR
Type: biochemical
Method: as §1
The 2×PAK2 (PAK65)/Ser/Thr 20 mixture is prepared in 50 mM HEPES pH 7.5, 0.01% BRIJ-35, 10 mM MgCl2, 1 mM EGTA. The final 10 μL Kinase Reaction consists of 0.29-6 ng PAK2 (PAK65) and 2 μM Ser/Thr 20 in 50 mM HEPES pH 7.5, 0.01% BRIJ-35, 10 mM MgCl2, 1 mM EGTA.
as §2, §3, §4, §5, §6, §7, §8

| SMILES | IC50 [nM] |
| --- | --- |
| CCn1c(=O)c(-c2ccc(-c3cncc(C)n3)cc2Cl)cc2cnc(NC3CCC(CCN)CC3)nc21 (stereo not drawn) [Example 134] | < 50 |
| CCn1c(=O)c(-c2ccc(-c3cccnc3C)cc2Cl)cc2cnc(N[C@@H]3CCOC3)nc21 [Example 59] | 500 to 5000 |
| Cc1nccnc1-c1ccc(-c2cc3cnc(N[C@@H]4CCOC4)nc3n(Cc3ccncc3)c2=O)c(Cl)c1 [Example 124] | 50 to 500 |
| CCn1c(=O)c(-c2ccc(-c3nccnc3C)cc2Cl)cc2cnc(NC3CCN(C)C(=O)C3)nc21 (stereo not drawn) [Example 35] | 50 to 500 |
| COCCCn1c(=O)c(-c2ccc(-c3cncc(C)n3)cc2Cl)cc2cnc(N[C@@H]3CCOC3)nc21 [Example 64] | < 50 |
| CCn1c(=O)c(-c2ccc(-c3noc(C)n3)cc2Cl)cc2cnc(N[C@@H]3CCOC3)nc21 [Example 54] | 50 to 500 |
| CCn1c(=O)c(-c2ccc(-c3cncc(C)n3)cc2Cl)cc2cnc(NCC3CCC(N(C)C)CC3)nc21 (stereo not drawn) [Example 132] | 50 to 500 |
| Cc1nccnc1-c1ccc(-c2cc3cnc(N[C@H]4CCOC4)nc3n(Cc3ccncc3)c2=O)c(Cl)c1 [Example 126] | 50 to 500 |
| CCn1c(=O)c(-c2ccc(-c3nccnc3C)cc2Cl)cc2cnc(NC3CCNC(=O)C3)nc21 (stereo not drawn) [Example 33] | < 50 |
